According to the NIST ThermoML archive (doi:10.1016/j.fluid.2014.07.038):
Numbers after ± are expanded uncertainties.

Details: Liquid; pulse heating to limit of superheat

Row | Critical pressure | Critical temperature | Compound
1 | 3610 ± 200 kPa | 719 ± 14 K | Cc1ccc(CO)cc1 [1-(hydroxymethyl)-4-methylbenzene]
2 | 4200 ± 400 kPa | 687 ± 20 K | CC(C)(CO)CO [2,2-dimethyl-1,3-propanediol]
3 | 4800 ± 300 kPa | 864 ± 18 K | O=Cc1ccccc1C(=O)O [2-carboxybenzaldehyde]
4 | 3920 ± 240 kPa | 763 ± 16 K | Cc1ccccc1C(=O)O [2-methylbenzoic acid]
5 | 3850 ± 240 kPa | 771 ± 16 K | Cc1cccc(C(=O)O)c1 [3-methylbenzoic acid]
6 | 3800 ± 200 kPa | 712 ± 14 K | Cc1ccc(C=O)cc1 [4-methylbenzaldehyde]
7 | 3800 ± 200 kPa | 775 ± 16 K | Cc1ccc(C(=O)O)cc1 [4-methylbenzoic acid]
8 | 4330 ± 200 kPa | 713 ± 14 K | OCc1ccccc1 [benzenemethanol]
9 | 4530 ± 200 kPa | 755 ± 16 K | O=C(O)c1ccccc1 [benzoic acid]
10 | 1210 ± 80 kPa | 777 ± 16 K | CCCCCCCC/C=C\CCCCCCCC(=O)OC [methyl cis-9-octadecenoate]
11 | 1170 ± 80 kPa | 760 ± 16 K | CCCCCCCCCCCCCCCC(=O)OC [methyl hexadecanoate]
12 | 1080 ± 60 kPa | 785 ± 16 K | CCCCCCCCCCCCCCCCCC(=O)OC [methyl octadecanoate]
13 | 1320 ± 80 kPa | 730 ± 14 K | CCCCCCCCCCCCCC(=O)OC [methyl tetradecanoate]
14 | 6380 ± 520 kPa | 721 ± 22 K | OCCCO [propan-1,3-diol]

Row | Compound | Critical pressure | Critical temperature
15 | O=Cc1ccccc1 [benzaldehyde] | 4410 ± 200 kPa | 692 ± 14 K
